# Laboratory results: patent publication US20250206730A1 (AUTOTELIC BIO INC., priority 2022, published 2025)
# Test system: TGF-β signaling
# Assay: Assay for evaluating cellular inhibition of TGF-β signaling, 4T1 (SBE-luc2P) luciferase reporter
# Assay type: cell-based
# Conditions: Mus musculus, 4T1, 4T1 (SBE-luc2P) transient pool, 0.2% FBS, 2 h pre-treatment, TGF-β1 2 ng/mL 24 h; read-out: IC50 4T1 Cell
# Experimental: [Example 2] Assay for Evaluating Cellular Inhibition of TGF-β Signaling
# 4T1 (SBE-luc2P) transient pool that have SBE-luc2P (hygro) expression plasmid or HEK293 (SBE reporter) stable cells (BPS bioscience) were seeded at 6×10^3 cells/well or 2.5×10^4 cells/well in 96-well plate, respectively. 4T1 (SBE-luc2P) transient pool were pre-treated with novel compound synthesized in Example 1 above in 0.2% FBS at approximately 60% confluence at 37° C. in 5% CO2. Also, HEK293 (SBE reporter) stable cells were pre-treated with each test compounds of formula in 0.5% FBS at approximately 80% confluence at 37° C. in 5% CO2. After 2 hours, cells were treated with TGF-β1 (2 ng/mL) for 24 h at 37° C. in 5% CO2. Cell lysates were prepared using Luciferase Assay (Promega) according to the manufacturer's instruction, and luminescence was measured by a plate reader, Biotek Synergy H1 (Vermont, USA).
row,Structure (SMILES),IC50
1,"Cc1nc(-c2ccccc2)c(Oc2ccnc(Nc3ccc(F)nc3)c2)s1 [A-83, N-(6-Fluoropyridin-3-yl)-4-((2-methyl-4-phenylthiazol-5-yl)oxy)pyridin-2-amine]",> 100 nM
2,"Cc1nc(-c2ccccc2)c(Oc2ccnc(Nc3cnn(S(C)(=O)=O)c3)c2)s1 [A-97, 4-((2-Methyl-4-phenylthiazol-5-yl)oxy)-N-(1-(methylsulfonyl)-1H-pyrazol-4-yl)pyridin-2-amine]",> 100 nM
3,"Cc1nc(-c2ccccc2)c(Oc2cc(Nc3cccc(S(N)(=O)=O)c3)ncn2)s1 [A-237, 3-((6-((2-Methyl-4-phenylthiazol-5-yl)oxy)pyrimidin-4-yl)amino)benzenesulfonamide]",> 100 nM
4,"Nc1nc(-c2ccccc2)c(Oc2ccnc(NCc3ccncc3)c2)s1 [A-26, 4-Phenyl-5-((2-((pyridin-4-ylmethyl)amino)pyridin-4-yl)oxy)thiazol-2-amine]",> 100 nM
5,"Cc1nc(-c2ccccc2)c(Oc2ccnc(Nc3ccnc(F)c3)c2)s1 [A-87, N-(2-Fluoropyridin-4-yl)-4-((2-methyl-4-phenylthiazol-5-yl)oxy)pyridin-2-amine]",> 100 nM
6,"Nc1nc(-c2ccccc2)c(Oc2ccnc(Nc3ccc(Cl)nc3)c2)s1 [A-35, 5-((2-((6-Chloropyridin-3-yl)amino)pyridin-4-yl)oxy)-4-phenylthiazol-2-amine]",> 100 nM
7,"Nc1nc(-c2ccccc2)c(Oc2ccnc(Nc3ccnc(Cl)c3)c2)s1 [A-27, 5-((2-((2-Chloropyridin-4-yl)amino)pyridin-4-yl)oxy)-4-phenylthiazol-2-amine]",> 100 nM
8,"COC(=O)c1cccc(Nc2cc(Oc3sc(C(C)C)nc3-c3ccccc3)ccn2)n1 [A-216, Methyl 6-((4-((2-Isopropyl-4-phenylthiazol-5-yl)oxy)pyridin-2-yl)amino)picolinate]",> 100 nM
9,"Cc1nc(-c2ccccc2)c(Oc2ccnc(NCc3ccncc3)c2)s1 [A-80, 4-((2-Methyl-4-phenylthiazol-5-yl)oxy)-N-(pyridin-4-ylmethyl)pyridin-2-amine]",> 100 nM
10,"Cc1nc(-c2ccccc2)c(Oc2ccnc(Nc3ccc(Cl)nc3)c2)s1 [A-84, N-(6-Chloropyridin-3-yl)-4-((2-methyl-4-phenylthiazol-5-yl)oxy)pyridin-2-amine]",> 100 nM
11,"Cc1nc(-c2ccccc2)c(Oc2ccnc(NCc3ccc(F)cc3)c2)s1 [A-95, N-(4-Fluorobenzyl)-4-((2-methyl-4-phenylthiazol-5-yl)oxy)pyridin-2-amine]",> 100 nM
12,"NC(=O)c1cncc(Nc2cc(Oc3sc(N)nc3-c3ccccc3)ccn2)c1 [A-32, 5-((4-((2-Amino-4-phenylthiazol-5-yl)oxy)pyridin-2-yl)amino)nicotinamide]",> 100 nM
13,"Cc1nc(-c2ccccc2)c(Oc2ccnc(NCc3cccc(F)c3)c2)s1 [A-96, N-(3-Fluorobenzyl)-4-((2-methyl-4-phenylthiazol-5-yl)oxy)pyridin-2-amine]",> 100 nM
14,"Nc1nc(-c2ccccc2)c(Oc2ccnc(Nc3cccc(S(=O)(=O)O)c3)c2)s1 [A-18, 3-((4-((2-Amino-4-phenylthiazol-5-yl)oxy)pyridin-2-yl)amino)benzenesulfonic acid]",> 100 nM
15,"NC(=O)c1ccc(Nc2cc(Oc3sc(N)nc3-c3ccccc3)ccn2)cn1 [A-11, 5-((4-((2-Amino-4-phenylthiazol-5-yl)oxy)pyridin-2-yl)amino)picolinamide]",> 100 nM
16,"Nc1nc(-c2ccccc2)c(Oc2ccnc(Nc3ccc(F)nc3)c2)s1 [A-7, 5-((2-((6-Fluoropyridin-3-yl)amino)pyridin-4-yl)oxy)-4-phenylthiazol-2-amine]",> 100 nM
17,"Nc1nc(-c2ccccc2)c(Oc2ccnc(NCc3ccccc3)c2)s1 [A-25, 5-((2-(Benzylamino)pyridin-4-yl)oxy)-4-phenylthiazol-2-amine]",> 100 nM

# The next lines start with the values.
row,IC50,Structure (SMILES)
1,< 100 nM,"Cc1nc(-c2ccccc2)c(Oc2ccnc(Nc3cccc(NS(=O)(=O)C4CC4)c3)c2)s1 [A-75, N-(3-((4-((2-Methyl-4-phenylthiazol-5-yl)oxy)pyridin-2-yl)amino)phenyl)cyclopropanesulfonamide]"
2,< 100 nM,"O=S(=O)(Nc1cccc(Nc2cc(Oc3sc(C4CC4)nc3-c3ccccc3)ccn2)c1)C(F)(F)F [A-123, N-(3-((4-((2-Cyclopropyl-4-phenylthiazol-5-yl)oxy)pyridin-2-yl)amino)phenyl)-1,1,1-trifluoromethanesulfonamide]"
3,> 100 nM,"COc1ccc(Nc2cc(Oc3sc(C)nc3-c3ccccc3)ccn2)cc1 [A-103, N-(4-Methoxyphenyl)-4-((2-methyl-4-phenylthiazol-5-yl)oxy)pyridin-2-amine]"
4,< 100 nM,"NC(=O)c1cccc(Nc2cc(Oc3sc(N)nc3-c3ccccc3)ccn2)n1 [A-33, 6-((4-((2-Amino-4-phenylthiazol-5-yl)oxy)pyridin-2-yl)amino)picolinamide]"
5,< 100 nM,"COC(=O)C(C)(C)c1cccc(Nc2cc(Oc3sc(C)nc3-c3cccc(C)n3)ccn2)c1 [A-308, Methyl 2-methyl-2-(3-((4-((2-methyl-4-(6-methylpyridin-2-yl)thiazol-5-yl)oxy)pyridin-2-yl)amino)phenyl)propanoate]"
6,< 100 nM,"CS(=O)(=O)Cc1cccc(Nc2cc(Oc3sc(N)nc3-c3ccccc3)ccn2)c1 [A-19, 5-((2-((3-((Methylsulfonyl)methyl)phenyl)amino)pyridin-4-yl)oxy)-4-phenylthiazol-2-amine]"
7,< 100 nM,"Nc1nc(-c2ccccc2)c(Oc2ccnc(Nc3cccc(NS(=O)(=O)C(F)(F)F)c3)c2)s1 [A-36, N-(3-((4-((2-Amino-4-phenylthiazol-5-yl)oxy)pyridin-2-yl)amino)phenyl)-1,1,1-trifluoromethanesulfonamide]"
8,< 100 nM,"Cc1nc(-c2ccccc2)c(Oc2ccnc(Nc3ccc(C(N)=O)cn3)c2)s1 [A-90, 6-((4-((2-Methyl-4-phenylthiazol-5-yl)oxy)pyridin-2-yl)amino)nicotinamide]"
9,< 100 nM,"CS(=O)(=O)c1cccc(Nc2cc(Oc3sc(N)nc3-c3ccccc3)ccn2)c1 [A-15, 5-((2-((3-(Methylsulfonyl)phenyl)amino)pyridin-4-yl)oxy)-4-phenylthiazol-2-amine]"
10,< 100 nM,"CNS(=O)(=O)c1cccc(Nc2cc(Oc3sc(N)nc3-c3ccccc3)ccn2)c1 [A-12, 3-((4-((2-Amino-4-phenylthiazol-5-yl)oxy)pyridin-2-yl)amino)-N-methylbenzenesulfonamide]"
11,< 100 nM,"COCCN1CCN(c2ccc(Nc3cc(Oc4sc(C)nc4-c4ccccc4)ccn3)cc2)CC1 [A-108, N-(4-(4-(2-Methoxyethyl)piperazin-1-yl)phenyl)-4-((2-methyl-4-phenylthiazol-5-yl)oxy)pyridin-2-amine]"
12,< 100 nM,"CNS(=O)(=O)c1cccc(Nc2cc(Oc3sc(C)nc3-c3ccccc3)ccn2)c1 [A-73, N-Methyl-3-((4-((2-methyl-4-phenylthiazol-5-yl)oxy)pyridin-2-yl)amino)benzenesulfonamide]"
13,< 100 nM,"COC(=O)c1cccc(Nc2cc(Oc3sc(N(C)C)nc3-c3ccccc3)ccn2)n1 [A-162, Methyl 6-((4-((2-(dimethylamino)-4-phenylthiazol-5-yl)oxy)pyridin-2-yl)amino)picolinate]"
14,< 100 nM,"Cc1nc(-c2ccccc2)c(Oc2ccnc(Nc3cnn(C)c3)c2)s1 [A-99, N-(1-Methyl-1H-pyrazol-4-yl)-4-((2-methyl-4-phenylthiazol-5-yl)oxy)pyridin-2-amine]"
15,< 100 nM,"CCc1nc(-c2ccccc2)c(Oc2ccnc(Nc3cccc(NS(=O)(=O)C(F)(F)F)c3)c2)s1 [A-311, N-(3-((4-((2-Ethyl-4-phenylthiazol-5-yl)oxy)pyridin-2-yl)amino)phenyl)-1,1,1-trifluoromethanesulfonamide]"
16,< 100 nM,"CCS(=O)(=O)c1cccc(Nc2cc(Oc3sc(C)nc3-c3ccccc3)ccn2)c1 [A-77, N-(3-(Ethylsulfonyl)phenyl)-4-((2-methyl-4-phenylthiazol-5-yl)oxy)pyridin-2-amine]"
17,< 100 nM,"Nc1nc(-c2ccccc2)c(Oc2ccnc(Nc3cccc(S(=O)(=O)NC4CC4)c3)c2)s1 [A-20, 3-((4-((2-Amino-4-phenylthiazol-5-yl)oxy)pyridin-2-yl)amino)-N-cyclopropylbenzenesulfonamide]"
18,< 100 nM,"Cc1nc(-c2ccccc2)c(Oc2ccnc(Nc3cccc(CS(C)(=O)=O)c3)c2)s1 [A-79, 4-((2-Methyl-4-phenylthiazol-5-yl)oxy)-N-(3-((methylsulfonyl)methyl)phenyl)pyridin-2-amine]"
19,< 100 nM,"NC(=O)c1ccnc(Nc2cc(Oc3sc(N)nc3-c3ccccc3)ccn2)c1 [A-22, 2-((4-((2-Amino-4-phenylthiazol-5-yl)oxy)pyridin-2-yl)amino)isonicotinamide]"
20,< 100 nM,"Cc1nc(-c2ccccc2)c(Oc2ccnc(Nc3cn[nH]c3)c2)s1 [A-100, 4-((2-Methyl-4-phenylthiazol-5-yl)oxy)-N-(1H-pyrazol-4-yl)pyridin-2-amine]"
21,< 100 nM,"Nc1nc(-c2ccccc2)c(Oc2cc(Nc3cccc(S(N)(=O)=O)c3)ncn2)s1 [A-239, 3-((6-((2-Amino-4-phenylthiazol-5-yl)oxy)pyrimidin-4-yl)amino)benzenesulfonamide]"
22,< 100 nM,"COc1cc(Nc2cc(Oc3sc(C)nc3-c3ccccc3)ccn2)ccn1 [A-88, N-(2-Methoxypyridin-4-yl)-4-((2-methyl-4-phenylthiazol-5-yl)oxy)pyridin-2-amine]"
23,< 100 nM,"COC(=O)c1ccc(Nc2cc(Oc3sc(C4CC4)nc3-c3ccccc3)ccn2)nc1 [A-130, Methyl 6-((4-((2-cyclopropyl-4-phenylthiazol-5-yl)oxy)pyridin-2-yl)amino)nicotinate]"
